Key:
Experiment in all cases: FFA sulfoconjugation assay (N6-MF-A formation with adenosine as scavenger)
Format in all cases: biochemical
hSULT1A2 = target: T1, hSULT1A2 (Homo sapiens, UniProt P50226)
T1 construct: made in house; host or cells: Salmonella typhimurium TA1538 (cytosolic fraction, not purified)
Procedure, shortened: (§1)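 SULT-containing cytosols from transgenic S. typhimurium TA1538 were incubated with FFA and 10 mM adenosine as nucleophilic scavenger for 20 min at 37 °C. N6-MF-A adducts were quantified by isotope-dilution UPLC-MS/MS ([15N5]N6-MF-A internal standard). Adduct formed in SULT-deficient cytosol controls was subtracted.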

hSULT2B1a = target: T2, hSULT2B1a (Homo sapiens, UniProt O00204)
T2 construct: made in house; host or cells: Salmonella typhimurium TA1538 (cytosolic fraction, not purified)
T2 sequence (O00204 1-350 isoform O00204-2): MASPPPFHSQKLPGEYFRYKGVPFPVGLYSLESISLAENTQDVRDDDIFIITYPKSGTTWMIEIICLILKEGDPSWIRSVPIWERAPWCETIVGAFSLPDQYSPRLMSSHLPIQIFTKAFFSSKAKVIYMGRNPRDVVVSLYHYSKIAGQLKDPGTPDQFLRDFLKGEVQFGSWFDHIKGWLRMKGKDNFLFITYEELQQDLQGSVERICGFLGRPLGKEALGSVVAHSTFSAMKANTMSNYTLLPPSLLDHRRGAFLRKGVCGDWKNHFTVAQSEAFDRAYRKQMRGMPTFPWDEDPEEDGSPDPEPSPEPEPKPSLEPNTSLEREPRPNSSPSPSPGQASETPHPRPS
Procedure, shortened: as §1

mSult1b1 = target: T3, mSult1b1 (Mus musculus, UniProt Q9QWG7)
T3 construct: made in house; host or cells: Salmonella typhimurium TA1538 (cytosolic fraction, enzyme not purified)
T3 sequence (Q9QWG7 whole entry): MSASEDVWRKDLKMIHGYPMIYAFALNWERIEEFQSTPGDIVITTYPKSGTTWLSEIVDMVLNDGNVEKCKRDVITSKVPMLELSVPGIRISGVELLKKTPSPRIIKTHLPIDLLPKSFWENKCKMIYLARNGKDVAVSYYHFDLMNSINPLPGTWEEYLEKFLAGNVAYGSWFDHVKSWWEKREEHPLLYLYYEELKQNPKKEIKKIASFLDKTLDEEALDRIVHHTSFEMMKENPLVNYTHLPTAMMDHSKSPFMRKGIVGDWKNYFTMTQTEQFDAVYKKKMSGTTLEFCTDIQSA
Procedure, shortened: as §1

mSult1c2 = target: T4, mSult1c2 (Mus musculus, UniProt Q9D939)
T4 construct: made in house; host or cells: Salmonella typhimurium TA1538 (cytosolic fraction, enzyme not purified)
T4 sequence (Q9D939 whole entry): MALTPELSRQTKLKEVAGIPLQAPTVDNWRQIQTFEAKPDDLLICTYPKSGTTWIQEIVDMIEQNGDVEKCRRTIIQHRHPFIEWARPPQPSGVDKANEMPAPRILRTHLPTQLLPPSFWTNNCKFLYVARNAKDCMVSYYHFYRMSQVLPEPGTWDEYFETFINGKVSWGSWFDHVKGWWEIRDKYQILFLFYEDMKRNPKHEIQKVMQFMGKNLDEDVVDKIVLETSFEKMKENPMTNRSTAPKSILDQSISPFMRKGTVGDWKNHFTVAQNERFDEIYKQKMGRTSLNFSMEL
Procedure, shortened: as §1

mSult1e1 = target: T5, mSult1e1 (Mus musculus, UniProt P49891)
T5 construct: made in house; host or cells: Salmonella typhimurium TA1538 (cytosolic fraction, enzyme not purified)
T5 sequence (P49891 1-295): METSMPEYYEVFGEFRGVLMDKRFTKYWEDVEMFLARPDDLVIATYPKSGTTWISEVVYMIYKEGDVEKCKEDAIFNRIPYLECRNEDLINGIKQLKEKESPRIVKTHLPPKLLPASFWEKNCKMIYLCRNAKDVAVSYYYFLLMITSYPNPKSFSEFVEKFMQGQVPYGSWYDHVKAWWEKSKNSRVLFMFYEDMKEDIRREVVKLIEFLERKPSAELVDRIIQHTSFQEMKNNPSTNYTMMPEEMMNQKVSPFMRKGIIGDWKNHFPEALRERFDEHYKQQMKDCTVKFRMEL
Procedure, shortened: as §1

rSult1b1 = target: T6, rSult1b1 (Rattus norvegicus, UniProt P52847)
T6 construct: made in house; host or cells: Salmonella typhimurium TA1538 (cytosolic fraction, enzyme not purified)
T6 sequence (P52847 whole entry): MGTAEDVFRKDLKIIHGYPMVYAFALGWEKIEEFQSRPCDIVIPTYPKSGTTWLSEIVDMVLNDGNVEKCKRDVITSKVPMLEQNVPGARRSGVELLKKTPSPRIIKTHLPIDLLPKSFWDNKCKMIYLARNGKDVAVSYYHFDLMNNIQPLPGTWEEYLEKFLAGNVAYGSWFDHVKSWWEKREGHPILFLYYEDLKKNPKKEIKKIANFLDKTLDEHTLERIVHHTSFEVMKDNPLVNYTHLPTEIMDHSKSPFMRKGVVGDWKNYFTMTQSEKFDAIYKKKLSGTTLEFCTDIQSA
Procedure, shortened: as §1

T1 sequence (P50226 whole entry): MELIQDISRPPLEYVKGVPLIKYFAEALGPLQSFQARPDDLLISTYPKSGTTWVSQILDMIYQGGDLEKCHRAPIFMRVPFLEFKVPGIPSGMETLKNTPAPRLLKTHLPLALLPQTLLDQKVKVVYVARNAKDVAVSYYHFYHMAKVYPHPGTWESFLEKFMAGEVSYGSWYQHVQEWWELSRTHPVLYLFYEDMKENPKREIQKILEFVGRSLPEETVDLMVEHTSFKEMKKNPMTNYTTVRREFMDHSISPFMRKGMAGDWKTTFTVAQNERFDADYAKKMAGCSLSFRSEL

OCc1ccco1 [FFA, furfuryl alcohol]
Rate of N6-MF-A formation (hSULT1A2; 0.1 mM FFA): <18 fmol N ^6-MF-A/mg/min | Rate of N6-MF-A formation (hSULT1A2; 1 mM FFA): 34.8 ± 0.5 fmol N ^6-MF-A/mg/min | Rate of N6-MF-A formation (corr.) (hSULT1A2; 1 mM FFA, corrected by actual SULT concentration in the cytosolic preparation): 2,480 ± 30 fmol N ^6-MF-A/mg/min | Rate of N6-MF-A formation (hSULT1A2; 10 mM FFA): 150 ± 4 fmol N ^6-MF-A/mg/min | Rate of N6-MF-A formation (hSULT2B1a; 0.1 mM FFA): <18 fmol N ^6-MF-A/mg/min | Rate of N6-MF-A formation (hSULT2B1a; 1 mM FFA): <20 fmol N ^6-MF-A/mg/min | Rate of N6-MF-A formation (hSULT2B1a; 10 mM FFA): <44 fmol N ^6-MF-A/mg/min | Rate of N6-MF-A formation (mSult1b1; 0.1 mM FFA): <18 fmol N ^6-MF-A/mg/min | Rate of N6-MF-A formation (mSult1b1; 10 mM FFA): 74.3 ± 1.6 fmol N ^6-MF-A/mg/min | Rate of N6-MF-A formation (mSult1c2; 0.1 mM FFA): <18 fmol N ^6-MF-A/mg/min | Rate of N6-MF-A formation (mSult1c2; 1 mM FFA): <20 fmol N ^6-MF-A/mg/min | Rate of N6-MF-A formation (mSult1c2; 10 mM FFA): <44 fmol N ^6-MF-A/mg/min | Rate of N6-MF-A formation (mSult1e1; 0.1 mM FFA): <18 fmol N ^6-MF-A/mg/min | Rate of N6-MF-A formation (mSult1e1; 1 mM FFA): 49.3 ± 1.2 fmol N ^6-MF-A/mg/min | Rate of N6-MF-A formation (mSult1e1; 10 mM FFA): 425 ± 3 fmol N ^6-MF-A/mg/min | Rate of N6-MF-A formation (rSult1b1; 0.1 mM FFA): <18 fmol N ^6-MF-A/mg/min | Rate of N6-MF-A formation (rSult1b1; 1 mM FFA): 34.3 ± 1.0 fmol N ^6-MF-A/mg/min | Rate of N6-MF-A formation (rSult1b1; 10 mM FFA): 314 ± 4 fmol N ^6-MF-A/mg/min
